Literature values, collected in US20140155265A1, “HERBICIDAL COMPOSITIN COMPRISING PINOXADEN AND FLUROXYPYR AND METHODS OF USE THEREOF” (priority 2011, published 2014).

Conditions: Pesticide Manual 15th edition

**Q.** Which pKa does the source give for `Nc1c(Cl)c(F)nc(OCC(=O)O)c1Cl` [Fluoroxypyr (free carboxylic acid), Fluoroxypyr] here?
**A.** Its pKa is 2.94.
